Measured values from ChEMBL document CHEMBL4739716, “Gpr139 receptor modulators” (2020).

Legend:
[1] = molecular target: T1, Probable G-protein coupled receptor 139 (Rattus norvegicus) (UniProt P0C0W8); assay: Agonist activity at rat GPR139 expressed in CHO-K1 cells assessed as increase in calcium flux by calcium 5 dye based FLIPR assay relative to JNJ63533054; format: cell-based
T1 sequence (whole entry): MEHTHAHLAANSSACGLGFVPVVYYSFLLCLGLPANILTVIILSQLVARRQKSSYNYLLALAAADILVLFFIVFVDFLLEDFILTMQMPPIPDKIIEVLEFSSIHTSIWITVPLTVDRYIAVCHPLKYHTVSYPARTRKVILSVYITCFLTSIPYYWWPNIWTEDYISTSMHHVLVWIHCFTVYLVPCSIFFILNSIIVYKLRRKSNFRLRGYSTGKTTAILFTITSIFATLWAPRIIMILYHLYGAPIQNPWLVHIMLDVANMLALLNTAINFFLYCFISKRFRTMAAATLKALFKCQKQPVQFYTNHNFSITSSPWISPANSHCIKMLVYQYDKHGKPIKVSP

[2] = molecular target: T2, Probable G-protein coupled receptor 139 (Rattus norvegicus, UniProt P0C0W8); assay: Agonist activity at rat GPR139 expressed in CHO-K1 cells assessed as increase in calcium flux by calcium 5 dye based FLIPR assay; format: cell-based
T2 sequence (P0C0W8 whole entry): T1 sequence (whole entry)

[3] = molecular target: T3, Probable G-protein coupled receptor 139 (Homo sapiens) (UniProt Q6DWJ6); assay: Agonist activity at human GPR139 expressed in CHO-K1 cells assessed as increase in calcium flux by calcium 5 dye based FLIPR assay relative to JNJ63533054; format: functional, cell-based
T3 sequence (whole entry): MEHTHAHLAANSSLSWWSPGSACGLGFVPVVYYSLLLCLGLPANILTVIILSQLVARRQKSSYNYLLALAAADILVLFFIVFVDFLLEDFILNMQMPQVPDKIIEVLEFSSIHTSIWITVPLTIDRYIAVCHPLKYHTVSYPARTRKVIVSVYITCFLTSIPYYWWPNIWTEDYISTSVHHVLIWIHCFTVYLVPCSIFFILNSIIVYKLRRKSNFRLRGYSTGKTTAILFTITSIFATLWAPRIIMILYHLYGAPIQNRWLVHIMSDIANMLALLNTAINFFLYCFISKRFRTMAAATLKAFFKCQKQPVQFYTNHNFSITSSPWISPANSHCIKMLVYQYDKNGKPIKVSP

[4] = molecular target: T4, Probable G-protein coupled receptor 139 (Homo sapiens, UniProt Q6DWJ6); assay: Agonist activity at human GPR139 expressed in CHO-K1 cells assessed as increase in calcium flux by calcium 5 dye based FLIPR assay; format: functional, cell-based
T4 sequence (Q6DWJ6 whole entry): T3 sequence (whole entry)

Row | SMILES | Emax [1] [%] | EC50 [2] [nM] | Emax [3] [%] | EC50 ([4]; cho-k1) [nM] | Emax ([1]; filed as agonist) [%] | EC50 ([2]; cho-k1) [nM] | Emax ([3]; filed as agonist) [%] | EC50 [4] [nM]
1 | C[C@H](NC(=O)Cn1nc2ccc(N3CCCCC3)nn2c1=O)c1ccc(OC(F)(F)F)cc1 | < 25 | ≥ 100 | 25 | 10 |  |  |  | 
2 | C[C@H](NC(=O)Cn1nc2cccnn2c1=O)c1ccc(OC(F)(F)F)cc1 |  |  |  | 1 | 50 | 10 | > 80 | 
3 | C[C@H](NC(=O)Cn1nc2cnccn2c1=O)c1ccc(Cl)c(F)c1 |  |  |  | 1 | > 80 | 1 | > 80 | 
4 | C[C@H](NC(=O)Cn1nc2ccc(Cl)nn2c1=O)c1ccc(Cl)c(F)c1 |  | < 1 |  |  | > 80 |  | > 80 | < 1
5 | C[C@@H](NC(=O)Cn1nc2ccccn2c1=O)c1ccc(OC(F)F)cc1 |  |  |  |  |  |  | 50 | ≥ 100
6 | CNc1nccn2c(=O)n(CC(=O)N[C@@H](C)c3ccc(Cl)c(F)c3)nc12 |  | < 1 |  |  | > 80 |  | > 80 | < 1
7 | Cc1ccc([C@H](C)NC(=O)Cn2nc3ccncn3c2=O)cc1 |  |  |  | 1 |  |  | > 80 | 
8 | C[C@H](NC(=O)Cn1nc2ccccn2c1=O)c1ccc(Cl)cc1 |  | < 1 |  |  | 50 |  | > 80 | < 1
9 | COc1ccn2c(=O)n(CC(=O)N[C@@H](C)c3ccc(Cl)cc3)nc2n1 |  |  |  | 1 | 50 | 1 | > 80 | 
10 | Cc1ccc([C@H](C)NC(=O)Cn2nc3c(C4CCNC4)cccn3c2=O)cc1 (stereo partly drawn) |  | ≥ 100 |  |  | 50 |  | 50 | ≥ 100
11 | C[C@H](NC(=O)Cn1nc2cccc(N3CCNCC3)n2c1=O)c1ccc(OC(F)(F)F)cc1 | 25 | ≥ 100 |  | 10 |  |  | > 80 | 
12 | C[C@H](NC(=O)Cn1nc2c(NC3COC3)nccn2c1=O)c1ccc(Cl)c(F)c1 |  |  |  | 1 | 50 | 1 | > 80 | 
13 | O=C(Cn1nc2ccccn2c1=O)NC(c1ccc(Cl)cc1)C1CC1 (stereo not drawn) |  |  |  | 10 |  |  | > 80 | 
14 | Cc1ccnc2nn(CC(=O)N[C@@H](C)c3ccc(OC(F)(F)F)cc3)c(=O)n12 | < 25 | ≥ 100 |  | 1 |  |  | 50 | 
15 | Cc1ccc([C@H](C)NC(=O)Cn2nc3cccc(Br)n3c2=O)cc1 |  |  |  | 1 |  |  | > 80 | 
16 | Cc1cc(C)n2c(=O)n(CC(=O)N[C@@H](C)c3ccc(Cl)c(F)c3)nc2n1 |  |  |  |  | 50 | 1 | > 80 | < 1
17 | C[C@H](NC(=O)Cn1nc2ncccn2c1=O)c1ccc(Cl)cc1 | 25 | ≥ 100 |  | 10 |  |  | > 80 | 
18 | Cc1nccn2c(=O)n(CC(=O)N[C@@H](C)c3ccc(Cl)c(F)c3)nc12 |  | < 1 |  |  | > 80 |  | > 80 | < 1
19 | C[C@H](NC(=O)Cn1nc2cc(I)ccn2c1=O)c1ccc(Cl)c(F)c1 |  | < 1 |  |  | > 80 |  | > 80 | < 1
20 | Cc1ccc([C@H](C)NC(=O)Cn2nc3ncccn3c2=O)cc1 | 25 | ≥ 100 |  | 10 |  |  | > 80 | 
21 | Cc1ccc([C@H](C)NC(=O)Cn2nc3c(N)cccn3c2=O)cc1 |  |  |  | 1 | 50 | 1 | > 80 | 
22 | C[C@H](NC(=O)Cn1nc2cccnn2c1=O)c1ccc(C2CC2)cc1 |  |  |  | 10 | 50 | 10 | 50 | 
23 | C[C@H](NC(=O)Cn1nc2ncccn2c1=O)c1ccc(OC(F)(F)F)cc1 | < 25 | ≥ 100 |  | 10 |  |  | > 80 | 

Row | SMILES | Emax [1] [%] | EC50 [2] [nM] | Emax [3] [%] | EC50 ([4]; cho-k1) [nM] | Emax ([1]; filed as agonist) [%] | EC50 ([2]; cho-k1) [nM] | Emax ([3]; filed as agonist) [%] | EC50 [4] [nM]
24 | Cc1ccc([C@H](C)NC(=O)C(C)n2nc3ccccn3c2=O)cc1 (stereo in doubt; form 1) [listing 1 of 2 here] |  |  |  |  | 50 |  | > 80 | 
25 | Cc1ccc([C@H](C)NC(=O)Cn2nc3cc(C)nc(C)n3c2=O)cc1 |  |  |  | 1 |  |  | > 80 | 
26 | CC(C)Oc1ccc([C@H](C)NC(=O)Cn2nc3ccccn3c2=O)cc1 | 25 | ≥ 100 |  | 10 |  |  | 50 | 
27 | CC1COCCN1c1cccc2nn(CC(=O)N[C@@H](C)c3ccc(Cl)c(F)c3)c(=O)n12 (stereo partly drawn) |  |  |  |  | > 80 | 1 | > 80 | < 1
28 | CC(NC(=O)Cn1nc2ccccn2c1=O)c1ccc(OC(F)F)cc1 (stereo in doubt) |  |  |  | 10 |  |  | > 80 | 
29 | C[C@H](NC(=O)Cn1nc2c(N3CCCCC3)nccn2c1=O)c1ccc(Cl)c(F)c1 |  | < 1 |  |  | > 80 |  | > 80 | < 1
30 | COc1ccn2c(=O)n(CC(=O)N[C@@H](C)c3ccc(C)cc3)nc2n1 |  |  |  | 1 | 50 | 1 | > 80 | 
31 | Cc1ccc([C@H](C)NC(=O)Cn2nc3ccc(Br)cn3c2=O)cc1 |  | < 1 |  | 1 | 50 |  | > 80 | 
32 | C[C@H](NC(=O)Cn1nc2ccccn2c1=O)c1ccc(OC(F)(F)F)cc1 | 25 |  |  | 1 |  | 1 | > 80 | 
33 | C[C@H](NC(=O)Cn1nc2ccccn2c1=O)c1cncc(F)c1 |  |  |  |  |  |  | 50 | ≥ 100
34 | Cc1cc2nn(CC(=O)N[C@@H](C)c3ccc(Cl)cc3)c(=O)n2c(C)n1 | < 25 | ≥ 100 |  |  |  |  | > 80 | < 1
35 | C[C@H](NC(=O)Cn1nc2cccc(N3CCOCC3)n2c1=O)c1ccc(Cl)c(F)c1 |  |  |  |  | > 80 | 1 | > 80 | < 1
36 | C[C@H](NC(=O)Cn1nc2ncc(F)cn2c1=O)c1ccc(Cl)cc1 | 25 | ≥ 100 |  | 1 |  |  | > 80 | 
37 | C[C@H](NC(=O)Cn1nc2c(N3CCNCC3)nccn2c1=O)c1ccc(Cl)c(F)c1 |  |  |  | 1 | 50 | 10 | > 80 | 
38 | Cc1cn2c(=O)n(CC(=O)N[C@@H](C)c3ccc(OC(F)(F)F)cc3)nc2cn1 | 25 | ≥ 100 |  | 1 |  |  | > 80 | 
39 | C[C@H](NC(=O)Cn1nc2c(N3CCN(C)CC3)nccn2c1=O)c1ccc(Cl)c(F)c1 |  |  |  | 1 | > 80 | 1 | 50 | 
40 | C[C@H](NC(=O)Cn1nc2ccccn2c1=O)c1ccc(OC(F)F)c(F)c1 |  |  |  | 1 | 50 | 1 | > 80 | 
41 | Cc1ccc([C@H](C)NC(=O)Cn2nc3cnc(C)cn3c2=O)cc1 |  |  |  | 1 | 50 | 1 | > 80 | 
42 | C[C@H](NC(=O)Cn1nc2ccccn2c1=O)c1ccc(OC(F)F)cc1 | 25 |  |  | 1 |  | 10 | > 80 | 
43 | Cc1ccc([C@H](C)NC(=O)Cn2nc3c(NC(=O)OC(C)(C)C)cccn3c2=O)cc1 |  |  |  | 1 |  |  | 50 | 
44 | Cc1ccc([C@@H](C)NC(=O)Cn2nc3ccccn3c2=O)cc1 |  |  |  |  |  |  | 50 | ≥ 100
45 | Cc1ccc([C@H](C)NC(=O)C(C)n2nc3ccccn3c2=O)cc1 (stereo in doubt; form 1) [listing 2 of 2 here] |  |  |  | 1 |  | 1 |  | 
